The values below come from PubChem BioAssay (NCI).

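48-hour exposure; five concentrations; linearly interpolated endpoints. Definition used: TGI = concentration required for complete inhibition of growth.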

Test systems include OVCAR-3 ovarian; MOLT-4 leukemia; SNB-19 CNS; 786-0 renal; CCRF-CEM leukemia; HL-60(TB) leukemia; SF-268 CNS; UO-31 renal; HOP-92 NSCLC.
What all share (experiment): growth of human tumour cells (NCI), 48 h

On to `CC(=O)NNc1nc(C)c(C(=O)NNC(=O)C(=O)Nc2ccc(C)c(C)c2)s1`, for which the TGI with OVCAR-3 ovarian is 81.1 µM; in the experiment with MOLT-4 leukemia it was greater than 100 µM; with SNB-19 CNS, greater than 100 µM; with 786-0 renal, greater than 100 µM; in the experiment on CCRF-CEM leukemia, greater than 100 µM; in the experiment with HL-60(TB) leukemia it was greater than 100 µM. Moreover, the TGI with SF-268 CNS, in the experiment on UO-31 renal and with HOP-92 NSCLC was greater than 100 µM in each case.

Take `O=c1[nH]c(=S)[nH]c2c1sc(=S)n2-c1ccccc1`: the TGI in the experiment with OVCAR-3 ovarian, in the experiment with MOLT-4 leukemia, in the experiment with SNB-19 CNS, in the experiment on 786-0 renal, with CCRF-CEM leukemia and in the experiment on HL-60(TB) leukemia was greater than 100 µM each time. The TGI in the experiment on SF-268 CNS, in the experiment with UO-31 renal and in the experiment on HOP-92 NSCLC was greater than 100 µM in each case.

In the case of `COC(=O)CCC(NC(=S)N/N=C(\C)c1ccccn1)C(=O)OC` (configuration not stated), the TGI was greater than 100 µM with OVCAR-3 ovarian; greater than 100 µM in the experiment on MOLT-4 leukemia; greater than 100 µM in the experiment with SNB-19 CNS; greater than 100 µM with 786-0 renal; greater than 100 µM in the experiment on CCRF-CEM leukemia; 53.1 µM with HL-60(TB) leukemia. Also, the TGI in the experiment on SF-268 CNS, in the experiment with UO-31 renal and in the experiment on HOP-92 NSCLC was greater than 100 µM throughout.

On to `Cc1c2ccccc2c(C)c2c3c(ccc12)C(=O)C=CC3=O`, for which the TGI with OVCAR-3 ovarian is 38.3 µM; in the experiment on MOLT-4 leukemia, 6.78 µM; with SNB-19 CNS, greater than 100 µM; in the experiment on 786-0 renal, greater than 62.2 µM; in the experiment with CCRF-CEM leukemia, 6.75 µM; with HL-60(TB) leukemia, 5.3 µM. Moreover, the TGI with SF-268 CNS amounted to 43.1 µM; in the experiment with UO-31 renal, 41.7 µM; in the experiment on HOP-92 NSCLC it was 32.4 µM.

Take `CC(C)c1cc(C(C)C)c(S(=O)(=O)NN)c(C(C)C)c1`: the TGI in the experiment with OVCAR-3 ovarian, in the experiment on SNB-19 CNS, in the experiment on 786-0 renal, in the experiment on SF-268 CNS and in the experiment with HOP-92 NSCLC was greater than 100 µM each time.

On to `C=C1C(=O)OC2CCCCC3OC3C12` (configuration not stated), for which the TGI in the experiment on OVCAR-3 ovarian is 26.5 µM; in the experiment with MOLT-4 leukemia, 33.2 µM; with SNB-19 CNS it was 36.8 µM; with 786-0 renal, 19.8 µM; in the experiment on CCRF-CEM leukemia, 20.2 µM; in the experiment with HL-60(TB) leukemia it was 9.72 µM. The TGI came out at 31.1 µM with SF-268 CNS and 28.8 µM with UO-31 renal.

Turning to `O=C(NCCCN1CCN(CCCNC(=O)c2cnc3ccccc3n2)CC1)c1cnc2ccccc2n1`, the TGI in the experiment on OVCAR-3 ovarian, with MOLT-4 leukemia, with SNB-19 CNS, with 786-0 renal, in the experiment with CCRF-CEM leukemia and in the experiment with HL-60(TB) leukemia was greater than 100 µM each time. For the same molecule, the TGI in the experiment with SF-268 CNS and in the experiment with UO-31 renal was greater than 100 µM each time.

For the molecule `O=C(CCc1nnc2s/c(=C\c3ccccc3)c(=O)n12)Nc1cc(Cl)ccc1Cl`, the TGI in the experiment on OVCAR-3 ovarian, with MOLT-4 leukemia, in the experiment on SNB-19 CNS, in the experiment with 786-0 renal, in the experiment with CCRF-CEM leukemia and in the experiment on HL-60(TB) leukemia was greater than 100 µM each time. Also, the TGI with SF-268 CNS, with UO-31 renal and in the experiment on HOP-92 NSCLC was greater than 100 µM in each case.

On to `COc1ccc(/C=C/c2cc(OC)c(O[Si](C)(C)C(C)(C)C)c(OC)c2)cc1`, for which the TGI in the experiment on OVCAR-3 ovarian, with MOLT-4 leukemia, with SNB-19 CNS, in the experiment on 786-0 renal, with CCRF-CEM leukemia and in the experiment with SF-268 CNS was greater than 100 µM in each case. The TGI in the experiment with UO-31 renal and with HOP-92 NSCLC was greater than 100 µM in each case.

Take `C/C(=N\NC(=O)CC(=O)Nc1ccc(C)cc1)c1cc2ccccc2oc1=O`: the TGI in the experiment on OVCAR-3 ovarian, in the experiment on MOLT-4 leukemia, in the experiment on SNB-19 CNS, in the experiment on 786-0 renal, in the experiment on CCRF-CEM leukemia and in the experiment with HL-60(TB) leukemia was greater than 100 µM each time. Also, the TGI in the experiment on UO-31 renal was greater than 100 µM.

As for `COc1ccc(/C=C2\N=C(c3ccccc3)OC2=O)c(OCc2ccccc2)c1`, the TGI in the experiment with OVCAR-3 ovarian is 48.4 µM; in the experiment on MOLT-4 leukemia, 80.6 µM; with SNB-19 CNS, 94.3 µM; in the experiment with 786-0 renal, 34.8 µM; in the experiment on CCRF-CEM leukemia it was 50.2 µM; in the experiment on HL-60(TB) leukemia, greater than 100 µM. Moreover, the TGI in the experiment with SF-268 CNS and in the experiment with UO-31 renal was greater than 100 µM each time.

Take `COc1ccc(/C=C/C(=O)c2sc(N)nc2C)cc1`: the TGI with OVCAR-3 ovarian, with MOLT-4 leukemia, in the experiment on SNB-19 CNS, in the experiment on 786-0 renal, in the experiment on CCRF-CEM leukemia and in the experiment with HL-60(TB) leukemia was greater than 100 µM in each case. Besides, the TGI in the experiment on SF-268 CNS, in the experiment on UO-31 renal and with HOP-92 NSCLC was greater than 100 µM in each case.

In the case of `COc1c(OC(C)=O)cc2c(OC(C)=O)c1CC(C)CC(OC)C(O)C(C)/C=C(\C)C(OC(N)=O)C(OC)/C=C\C=C(/C)C(=O)N2` (configuration not stated), the TGI is greater than 100 µM with OVCAR-3 ovarian; greater than 87.4 µM in the experiment with MOLT-4 leukemia; greater than 100 µM in the experiment on SNB-19 CNS; greater than 100 µM in the experiment on 786-0 renal; 98.3 µM with CCRF-CEM leukemia; greater than 67.5 µM in the experiment with HL-60(TB) leukemia. For the same molecule, the TGI in the experiment with SF-268 CNS, in the experiment on UO-31 renal and in the experiment on HOP-92 NSCLC was greater than 100 µM in each case.

Turning to `Nc1nnc2nc(CC(=O)/C=C/c3ccccc3)c(=O)[nH]n12`, the TGI in the experiment with OVCAR-3 ovarian, in the experiment on MOLT-4 leukemia, in the experiment on SNB-19 CNS, in the experiment with 786-0 renal, in the experiment with CCRF-CEM leukemia and in the experiment on HL-60(TB) leukemia was greater than 100 µM in each case. Besides, the TGI in the experiment with SF-268 CNS, with UO-31 renal and with HOP-92 NSCLC was greater than 100 µM each time.

Turning to `CCSC1(SCC)CCN(C=NC(C)(C)C)C1`, the TGI in the experiment with OVCAR-3 ovarian, in the experiment on MOLT-4 leukemia, in the experiment with SNB-19 CNS, in the experiment on 786-0 renal, in the experiment on CCRF-CEM leukemia and in the experiment with HL-60(TB) leukemia was greater than 100 µM in each case. Also, the TGI with SF-268 CNS and with UO-31 renal was greater than 100 µM each time.

`O=[N+]([O-])c1cccc(C2SCc3nc4ccccc4n32)c1` (configuration not stated): the TGI in the experiment with MOLT-4 leukemia, with SNB-19 CNS, with 786-0 renal, in the experiment with CCRF-CEM leukemia, in the experiment with HL-60(TB) leukemia and in the experiment with SF-268 CNS was greater than 100 µM each time. The TGI with UO-31 renal and in the experiment with HOP-92 NSCLC was greater than 100 µM throughout.
